Where only a bound is given, the exact number is not on record here.

We go through twelve molecules from patent EP1001774B1, “USE OF PHOSPHOLAMBAN INHIBITORS FOR INCREASING CORONARY FLOW” (ORION CORPORATION, priority 1997, dated 1999).

In one experiment the target is T1, phospholamban (Cavia porcellus, UniProt A0A286XLC6).
T1 construct: calcium uptake into the SR vesicles prepared from cardiac tissue; from tissue; host or cells: guinea-pig heart (ventricular myocardium), SR vesicle preparation
T1 sequence (A0A286XLC6 1-52): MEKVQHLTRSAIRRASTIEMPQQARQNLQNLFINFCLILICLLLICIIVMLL
Nature of the experiment: Calcium uptake assay (fluo-3) in SR vesicles from cardiac tissue. The class given is biochemical, guinea-pig. Conditions: vesicles from ventricular myocardium, 0.1 µM free calcium, read-out: The stimulation (%) of Ca^2+ uptake A; for activation at 100 µM: 100 µM compound; for activation at 10 µM: 10 µM compound. From the text:
(§1) The direct binding of a compound to the phospholamban protein can be ascertained by the circular dichroism (CD) spectroscopy. The methods for determining whether a compound relieves the inhibitory effect of phospholamban on SR Ca^2+-ATPase by direct binding to the phospholamban protein, i.e. is a phospholamban inhibitor, are illustrated in detail in the experimental section.
(§2) The effect on phospholamban of the compounds used in the invention was verified by measuring its effects on calcium uptake into the SR vesicles prepared from cardiac tissue and into vesicles prepared from fast skeletal muscle (psoas m.). […] The methods are described below in detail.
(§3) Guinea pigs (10-12) were decapited. Their hearts or the psoas muscles were excised, washed in ice-cold 0.9 % NaCl and cut into pieces in a buffer containing 20 mM Tris-maleate, 0.3 M sucrose, pH 7.0. Thereafter tissue pieces were homogenized with Polytron and further with Potter (10 strokes). The homogenate was centrifugated at 1000 g for 15 min at 4 °C. The supernatant was collected and the pellet was resuspended into 5 ml of the buffer (20 mM Tris-maleate, 0.3 M sucrose, pH 7.0) and recentrifugated at 1000 g for 10 min at 4 °C. The obtained supernatant was combined with the earlier collected supernatant and centrifugated once again at 10 000 g for 20 min at 4 °C. The final supernatant was filtered into a bottle equipped with a magnetic stirrer. KCl was added to the filtered supernatant to achieve the final concentration of 0.6 M (at 4 °C). The obtained solution was centrifugated at 100 000 g for 60 min at 4 °C. The pellet was suspended in 5 ml of the buffer containing 20 mM Tris-maleate, 0.3 M sucrose, pH 7.0 and centrifugated at 100 000 g for 60 min at 4 °C. The obtained pellet was suspended in 5 ml of buffer containing 20 mM Tris-maleate, 0.3 M sucrose, 0.1 M KCI, pH 7.0 and stored at -80 °C until use. The protein concentration was also measured in order to standardise the separately prepared vesicle preparations.
(§4) In the calcium uptake assay, the fluorescent indicator, fluo-3 was used to detect the decrease of the extravesicular Ca^2+-concentration, when the SR Ca^2+ATPase was transferring Ca^2+ from the extravesicular space into the SR-vesicles.
(§5) The SR-vesicles obtained above (50 µg protein/ml) were preincubated with or without the test compound at 37 °C for 5 min in the assay buffer containing 40 mM imidazole, 95 mM KCI, 5 mM NaN3, 5 mM MgCl2, 0.5 mM EGTA, 5 mM potassium oxalate, 2 µM ruthenium red, 5 µM fluo-3, pH 7.0. The free calcium was adjusted to 0.1 µM or to 0.04 µM by CaCl2. The reaction was initiated by adding ATP (5 mM). The final reaction volume was 1.5 ml. The fluorescence of reaction mixture was measured for 3 min by using the excitation and emission wavelengths of 510 nm and 530 nm, respectively.

For another experiment, the system named is SR Ca^2+-ATPase. In words: Calcium uptake assay (fluo-3) in SR vesicles from fast skeletal muscle (psoas m.), which contain no phospholamban. Conditions: vesicles from fast skeletal muscle, 0.04 µM free calcium. It counts as biochemical, guinea-pig.
Excerpt: as §1, §2, §3, §4, §5

A further experiment deals with coronary arteries. Nature of the experiment: Coronary flow in isolated paced heart (Langendorff, constant pressure). Particulars: Cavia porcellus; for Emax at 30 µM / Emax at 10 µM / Emax at 3 µM: read-out: Maximum effect (% change from baseline) on the coronary flow; for EC50: isolated heart, constant pressure 50 mmHg, paced at 250 beats/min. Also noted: species or system guinea-pig. How it is done: Guinea-pigs of either sex weighing 300-400 g were used in the study. After the guinea-pig was sacrificed by a blow on the skull and decapitated the heart was rapidly excised. The heart was then rinsed in cold oxygenated perfusion buffer. A cannula was inserted into the aorta and secured with a ligature. Retrograde perfusion began as soon as the heart was placed in a thermostatically controlled moist chamber of the Langendorff apparatus. Modified Tyrode solution (37 °C), equilibrated in a thermostatically controlled bulb oxygenator with carbogen (95 % O2 and 5% CO2) was used as a perfusion buffer. The composition of the Tyrode solution was (in mM): NaCl 135; MgCl2 x 6H2O 1; KCl 5; CaCl2 x 2H2O 2; NaHCO3 15; Na2HPO4 x 2H2O 1; glucose 10; pH 7.3-7.4. The experiments were carried out under constant pressure condition (50 mmHg). After a short prestabilization (10 min) a latex balloon (size 4) was carefully placed into the left ventricle through the left pulmonary vein and the left atrium. The latex balloon was attached to a stainless-steel cannula coupled with a pressure transducer. The latex balloon, the cannula and the chamber of the pressure transducer were filled with ethylene glycol / water (1:1) mixture avoiding any air-bubble. The isovolumetric left ventricular pressure was recorded through the pressure transducer. The maximal positive and negative derivatives of the left ventricular pressure were calculated by using the digitized pressure signals. At the beginning of the experiment, the volume of the balloon was adjusted to obtain a diastolic pressure of approximately 5 mmHg. Coronary flow (ml/min) was continuously recorded by an electromagnetic flow meter with a flow probe inserted above the aortic cannula. The heart was paced at 250 beats/min with a coaxial electrode localized on the surface of the right atrium. Before starting the experiment, the heart was allowed to stabilise further for 30 - 50 min with vehicle (0.1% DMSO) to reach a stable coronary flow.
After 15 min baseline recording various concentrations of the test compound of Example 1c were added to the perfusion buffer at 15 min intervals. The concentration range of 0.3 - 30 µM was tested. The vehicle concentration (0.1% DMSO) was kept constant throughout the experiment.

Take `O=c1oc2cc(OCc3nnn[nH]3)cc(OCc3nnn[nH]3)c2c2c1C(c1ccccc1)CCC2` (centres unmarked) [Example 2c, 7,8,9,10-Tetrahydro-1,3-bis[(1H -tetrazol-5-yl)methoxy]-7-phenyl-6H-dibenzo[b,d]pyran-6-one]: the activation at 100 µM at phospholamban was 26%. Moreover, in the experiment with SR Ca^2+-ATPase (100 µM compound), the “The stimulation (%) of Ca^2+ uptake B” value is recorded as -1%.
A word on the EC50: it is the midpoint of the concentration-response curve. Turning to `O=c1cc(-c2ccccc2)c2c(OCc3nnn[nH]3)cc(OCc3nnn[nH]3)cc2o1` [Example 5c, 5,7-Bis[(1H-tetrazol-5-yl)methoxy]-4-phenyl-2H-1-benzopyran-2-one], in the experiment on coronary arteries, the Emax at 30 µM is 52% and the EC50 is above 10 µM.
As for `Cc1c(Cc2ccccc2)c(=O)oc2cc(OCc3noc(=O)[nH]3)cc(OCc3noc(=O)[nH]3)c12` [Example 3c, 3-Benzyl-5,7-bis[(2,5-dihydro-5-oxo-4H-1,2,4-oxadiazol-3-yl)-methoxy]-4-methyl-2H-1-benzopyran-2-one], the activation at 20 µM at phospholamban (20 µM compound) turned out to be 51%. In addition, the “The stimulation (%) of Ca^2+ uptake B” value in the experiment with SR Ca^2+-ATPase (20 µM compound) turned out to be 0%. Besides, in the experiment with coronary arteries, the Emax at 30 µM was found to be 174% and a half-maximal response (EC50) required 5 µM.
On to `Cc1c(Cc2ccc(Cl)cc2)c(=O)oc2cc(OCc3nnn[nH]3)cc(OCc3nnn[nH]3)c12` [Example 14c, 5,7-Bis[(1H-tetrazol-5-yl)methoxy]-3-(4-chlorobenzyl)-4-methyl-2H-1-benzopyran-2-one], for which the activation at 10 µM at phospholamban was 18%. Moreover, in the experiment on coronary arteries, the Emax at 10 µM worked out at 112% and a half-maximal effect (EC50) was put at 1.5 µM.
As for `Cc1c(Cc2ccccc2)c(=O)oc2cc(OC(C)c3nnn[nH]3)cc(OC(C)c3nnn[nH]3)c12` (centres unmarked) [Example 11b, 3-Benzyl-5,7-bis[1-(1H-tetrazol-5-yl)ethoxy]4-methyl-2 H-1-benzopyran-2-one], the activation at 100 µM at phospholamban was determined as 28%. Moreover, in the experiment with coronary arteries, the Emax at 3 µM stood at 38% and it took 1 µM to reach a half-maximal effect (EC50).
Take `Cc1c(Cc2ccccc2)c(=O)n(Cc2ccccc2)c2cc(OCC(=O)O)cc(OCC(=O)O)c12` [Example 12, 5,7-Bis(carboxymethoxy)-1,3-dibenzyl-4-methyl-2(1H)-quinolinone]: at phospholamban, the activation at 100 µM is 32%. Besides, in the experiment on coronary arteries, the Emax at 10 µM was 60% and the EC50 was 5 µM.
In the case of `Cc1c(Cc2ccccc2)c(=O)n(Cc2ccccc2)c2cc(OCc3nnn[nH]3)cc(OCc3nnn[nH]3)c12` [Example 8g, 5,7-Bis[(1H-tetrazol-5-yl)methoxy]-1,3-dibenzyl-4-methyl-2(1H)-quinolinone], on phospholamban, the activation at 10 µM is 18%. In the experiment with SR Ca^2+-ATPase (10 µM compound), the “The stimulation (%) of Ca^2+ uptake B” value came to 0%. Also, in the experiment on coronary arteries, the Emax at 10 µM was determined as 100% and the concentration giving a half-maximal response (EC50) came out at 1 µM.
In the case of `Cc1c(Cc2ccccc2)c(=O)n(Cc2ccccc2)c2cc(OCC(N)=O)cc(OCC(N)=O)c12` [Example 21, 5,7-Bis(aminocarbonylmethoxy)-1,3-dibenzyl-4-methyl-2(1H)-quinolinone], the activation at 100 µM on phospholamban amounted to 11%. In the experiment on coronary arteries, the Emax at 10 µM is 141% and the EC50 was determined as 2 µM.
As for `Cc1c(CCc2ccccc2)c(=O)oc2cc(OCc3nnn[nH]3)cc(OCc3nnn[nH]3)c12` [Example 7c, 5,7-Bis[(1H-tetrazol-5-yl)methoxy]-4-methyl-3-(2-phenylethyl)-2H-1benzopyran-2-one], on phospholamban, the activation at 100 µM worked out at 5%. The “The stimulation (%) of Ca^2+ uptake B” value in the experiment with SR Ca^2+-ATPase (100 µM compound) is given as -17%.
`Cc1cc(=O)n(Cc2ccccc2)c2cc(OCc3nnn[nH]3)cc(OCc3nnn[nH]3)c12` [Example 18e, 1-Benzyl-5,7-bis-[(1H-tetrazol-5-yl)methoxy]-4-methyl-2(1H)-quinolinone]: the activation at 100 µM at phospholamban came out at 13%. Moreover, in the experiment with coronary arteries, the Emax at 30 µM stood at 69% and the EC50 amounted to 5 µM.
As for `Cc1c(Cc2ccccc2)c(=O)n(Cc2ccc(F)cc2)c2cc(OCc3nnn[nH]3)cc(OCc3nnn[nH]3)c12` [Example 13d], the activation at 50 µM at phospholamban (50 µM compound) was 23%. Also, in the experiment with coronary arteries, the Emax at 30 µM worked out at 104% and the EC50 was found to be 6 µM.
In the case of `Cc1c(Cc2ccccc2)c(=O)n(Cc2ccccc2)c2cc(OCC(=O)NO)cc(OCC(=O)NO)c12` [Example 23, 5,7-Bis(hydroxyaminocarbonylmethoxy)-1,3-dibenzyl-4-methyl-2(1H)-quinolinone], on phospholamban (5 µM compound), the activation at 5 µM came to 20%. Moreover, in the experiment with coronary arteries, the Emax at 3 µM worked out at 55% and the EC50 worked out at 0.9 µM.
